Data published in patent US7223770B2, “Tocopherol-modified therapeutic drug compounds” (priority 2003, dated 2007).
Where a name gives a salt, the structure may show the parent alone. Read-outs that look alike come from different tables or passages of the source. Marks after values point to notes of the source that are not given here.

What was measured:
[1] = tested on: NCI-H460 (non-small cell lung); conditions: NCI-H460 (NSCLC); value reported by NCI; cited from earlier work
[2] = tested on: HCT-15 (colorectal); conditions: HCT-15 (COLON); value reported by NCI; cited from earlier work
[3] = tested on: HCT-116 (colorectal); conditions: HCT-116 (COLON); value reported by NCI; cited from earlier work
[4] = tested on: HT-29 (colorectal); conditions: HT29 (COLON); value reported by NCI; cited from earlier work
[5] = tested on: OVCAR-3 (ovarian); conditions: value reported by NCI; cited from earlier work
[6] = format: physicochemical; conditions: for Solubility in TPGS / Solubility in Vitamin E USP/NF: 65 °C; for Solubility in Tween 80 NF: 65 → Room Temp.; for Solubility in Acetonitrile / Solubility in Captex 300 EP / Solubility in Chloroform / Solubility in DMSO / Solubility in Ethanol Denatured / Solubility in Glycerin USP/EP/BP/JP / Solubility in Methanol / Solubility in Methylene dichloride / Solubility in PEG-400 NF / Solubility in Propylene Glycol, USP / Solubility in Soybean Oil USP: Room Temp.
Method: Compounds were dissolved in each solvent under constant stirring and temperature to saturation. The resulting solutions were centrifuged and the supernatant was analyzed by high performance liquid chromatography (HPLC).

[7] = In vitro stability of the lactone form in presence of human serum albumin; format: in vitro ADME; conditions: saline buffered solution 10 mM pH 7.4, 4% human serum albumin, 37° C.; tested as SN2300 / SN2310 emulsion; FIG. 12
Source text: High performance liquid chromatography with fluorescence detection was used to analyze the decrease in the concentration of the lactone form over time.

[8] = tested on: HT-29 (colorectal); assay: In vitro cytotoxicity GI50, ALAMAR BLUE, 48 hours; format: cell-based, human; conditions: HT29 (COLON), emulsion formulation diluted in cell media
Method: (§1) The cells were in contact with varying concentrations of the test article for a period of 48 hours. At the end of 48 hours, staining with ALAMAR BLUE was performed to determine the number of viable cells and calculate the degree of cellular growth inhibition as compared to a control group.

[9] = tested on: NCI-H460 (non-small cell lung); assay: In vitro cytotoxicity GI50, ALAMAR BLUE, 48 hours; format: cell-based, human; conditions: NCI-H460 (NSCLC), emulsion formulation diluted in cell media
Method: as §1

[10] = Pharmacokinetics following intravenous administration in rats; format: in vivo, Sprague-Dawley rats; conditions: for Clearance / MRT / t1/2 (elimination): Sprague-Dawley rats, bolus intravenous, emulsion, approximately 14 mg/kg, plasma; for Plasma elimination half-life, times longer than the commercially available analogs: rats, intravenous
Method: Blood samples were collected for up to 120 hours post dose via the jugular vein. […] A noncompartmental analysis was carried out using WinNonlin (v 4.1).
The term “elimination rate constant” refers to the fraction of drug eliminated per unit of time. With first-order elimination, the rate of elimination is directly proportional to the serum drug concentration. There is a linear relationship between rate of elimination and serum drug concentration. Although the amount of drug eliminated in a first-order process changes with concentration, the fraction of a drug eliminated remains constant.
The term “clearance” refers to a measure of the body's ability to eliminate drug and is a hypothetical volume of distribution of drug which is cleared per unit time (i.e., mL/min) by any pathway of drug removal. […] The term “volume of distribution” refers to a calculated volume of body fluid that would be required to dissolve the total amount of drug at the same concentration as that found in the blood. It is a proportionality constant relating the amount of drug in the body to the measured concentration in biological fluid (blood, plasma, serum).

[11] = tested on: HCT-15 (colorectal); assay: In vitro cytotoxicity GI50, ALAMAR BLUE, 48 hours; format: cell-based; conditions: HCT-15 (COLON), emulsion formulation diluted in cell media
Method: as §1

[12] = tested on: MCF-7 (breast); assay: In vitro cytotoxicity GI50, ALAMAR BLUE, 48 hours; format: cell-based; conditions: emulsion formulation diluted in cell media
Method: as §1

[13] = tested on: HCT-116 (colorectal); assay: In vitro cytotoxicity GI50, ALAMAR BLUE, 48 hours; format: cell-based; conditions: HCT-116 (COLON), emulsion formulation diluted in cell media
Method: as §1

[14] = tested on: OVCAR-3 (ovarian); assay: In vitro cytotoxicity GI50, ALAMAR BLUE, 48 hours; format: cell-based; conditions: emulsion formulation diluted in cell media
Method: as §1

[15] = tested on: HT-29 human tumor cells; assay: HT-29 Human Tumor Xenograft anti-tumor activity; format: in vivo, Athymic mice; conditions: for Number of animals with no measurable tumor on Day 55 / Tumor Growth Delay (T − C) / Tumor Growth Inhibition (% T/C) / Tumors that had still not reached maximum pre-determined size: 15 mg/kg intravenous; for Tumor Growth Inhibition (% T/C): at Day 55
Method: HT-29 Human Tumor Xenograft. Athymic mice were subcutaneously implanted with 30–40 mg tumor fragments using 12-gauge trocar needles. A sufficient number of mice were implanted with fragments so tumors in narrow weight range (100–200 mg) were selected for the trial on staging day (SD). The animals selected with tumors in the proper size range were randomized into six groups of 10 animals and intravenously administered the following test compounds:
The tumor measurements were performed using a caliper (millimeters); the tumor volume was calculated based on the formula: (Length×width^2)/2=Volume (mm^3).

[16] = tested on: MCF-7 (breast); conditions: value reported by NCI; cited from earlier work
[17] = rats, intravenous; literature value; cited from earlier work
[18] = q1dx5, fifty-five days after dose initiation

## CCc1c2c(nc3ccc(O)cc13)-c1cc3c(c(=O)n1C2)COC(=O)[C@]3(O)CC [SN38, 7-ethyl-10-hydroxycamptothecin]
[1]
  GI50: 1.4 nM
[2]
  GI50: 7.9 nM
[3]
  GI50: 21 nM
[4]
  GI50: 1 nM
[5]
  GI50: 2.9 nM

## CC[C@@]1(OC(=O)CCC(=O)Oc2c(C)c(C)c3c(c2C)CC[C@@](C)(CCC[C@H](C)CCC[C@H](C)CCCC(C)C)O3)C(=O)OCc2c1cc1n(c2=O)Cc2cc3ccccc3nc2-1 [SN2300]
[6]
  Solubility in TPGS: >133.3 mg/g
  Solubility in Vitamin E USP/NF: >288.3 mg/g
  Solubility in Tween 80 NF: 48.3 mg/g
  Solubility in Acetonitrile: 49.6 mg/g
  Solubility in Captex 300 EP: 96.7 mg/g
  Solubility in Chloroform: >372.5 mg/g
  Solubility in DMSO: >255.5 mg/g
  Solubility in Ethanol Denatured: 57.1 mg/g
  Solubility in Glycerin USP/EP/BP/JP: 2.541 mg/g
  Solubility in Methanol: 14.4 mg/g
  Solubility in Methylene dichloride: >336.5 mg/g
  Solubility in PEG-400 NF: 17.5 mg/g
  Solubility in Propylene Glycol, USP: 0.4633 mg/g
  Solubility in Soybean Oil USP: 45.2 mg/g
[7]
  Stability of the lactone form over time: greater than that of camptothecin
[8]
  GI50: 434 nM
[9]
  GI50: 43 nM
[10]
  Clearance: 0.135 mL/min/kg
  MRT: 9.40 h
  t1/2 (elimination): 29.08 h
  Plasma elimination half-life, times longer than the commercially available analogs: approximately 30 times
[11]
  GI50: 20000 nM
[12]
  GI50: 325 nM
[13]
  GI50: 449 nM
[14]
  GI50 column, result in words (Poor activity): Poor
[15]; q1dx5 (2 weeks)
  Number of animals with no measurable tumor on Day 55: 0/10
  Tumor Growth Delay (T − C): 8.5 days
  Tumor Growth Inhibition (% T/C): 79 % T/C
[15]; q3dx10
  Number of animals with no measurable tumor on Day 55: 0/10
  Tumor Growth Delay (T − C): 0 days
  Tumor Growth Inhibition (% T/C): 102 % T/C

## CCc1c2c(nc3ccc(OC(=O)CCC(=O)Oc4c(C)c(C)c5c(c4C)CC[C@@](C)(CCC[C@H](C)CCC[C@H](C)CCCC(C)C)O5)cc13)-c1cc3c(c(=O)n1C2)COC(=O)[C@]3(O)CC [SN2310]
[6]
  Solubility in TPGS: 27.6 mg/g
  Solubility in Vitamin E USP/NF: 398.2 mg/g
  Solubility in Tween 80 NF: 2.7 mg/g
  Solubility in Acetonitrile: 3.1 mg/g
  Solubility in Captex 300 EP: 4.4 mg/g
  Solubility in Chloroform: >97.0 mg/g
  Solubility in DMSO: 30.5 mg/g
  Solubility in Ethanol Denatured: 4.2 mg/g
  Solubility in Glycerin USP/EP/BP/JP: 2.8 mg/g
  Solubility in Methanol: 3.8 mg/g
  Solubility in Methylene dichloride: >99.7 mg/g
  Solubility in PEG-400 NF: 0.017 mg/g
  Solubility in Propylene Glycol, USP: 3.2 mg/g
  Solubility in Soybean Oil USP: 3.3 mg/g
[7]
  Stability of the lactone form over time: greater than that of camptothecin
[8]
  GI50: 91 nM
[9]
  GI50: 4 nM
[10]
  Clearance: 0.112 mL/min/kg
  MRT: 5.15 h
  t1/2 (elimination): 3.49 h
  Plasma elimination half-life, times longer than the commercially available analogs: ~3 times
[11]
  GI50: 99 nM
[13]
  GI50: 119 nM
[14]
  GI50: 83 nM
[15]; q1dx5 (2 weeks)
  Number of animals with no measurable tumor on Day 55: 4/10
  Tumor Growth Delay (T − C): >28* days
  Tumors that had still not reached maximum pre-determined size: *90% of tumors in this group had still not reached maximum pre-determined size.
  Tumor Growth Inhibition (% T/C): 4 % T/C
[15]; q3dx10
  Number of animals with no measurable tumor on Day 55: 8/10
  Tumor Growth Delay (T − C): >28* days
  Tumors that had still not reached maximum pre-determined size: *90% of tumors in this group had still not reached maximum pre-determined size.
  Tumor Growth Inhibition (% T/C): 2 % T/C
[15]; [18]
  Median tumor size: 126 mm^3
  Mice with no measurable tumor: 40%
[15]; q3dx10, fifty-five days after dose initiation
  Mice with no measurable tumor: 80%

## CC[C@@]1(O)C(=O)OCc2c1cc1n(c2=O)Cc2cc3c(CN(C)C)c(O)ccc3nc2-1 [Topotecan, topotecan hydrochloride]
[1]
  GI50: 19.9 nM
[16]
  GI50: 15.8 nM
[2]
  GI50: 501 nM
[3]
  GI50: 39.8 nM
[17]
  Clearance: 53.7 mL/min/kg
  t1/2 (elimination): 1.06 h
[4]
  GI50: 125 nM
[5]
  GI50: 251 nM
